{"source": "ChEMBL document CHEMBL4804284", "set-up_in_all_cases": "scale not given: the % may be the effect or the level left", "key": {"[1]": {"molecular_target": "Glycogen synthase kinase-3 alpha (Homo sapiens) (UniProt P49840)", "assay": "Inhibition of DNA-tagged human GSK3A assessed as percent of control at 50000 nM by qPCR analysis relative to control"}, "[2]": {"molecular_target": "Rhodopsin kinase GRK1 (Homo sapiens) (UniProt Q15835)", "assay": "Inhibition of DNA-tagged human GRK1 assessed as percent of control at 50000 nM by qPCR analysis relative to control"}, "[3]": {"tested_on": "Receptor-type tyrosine-protein kinase FLT3 (Homo sapiens), P36888 [N841I]", "assay": "Inhibition of DNA-tagged human FLT3 N841I mutant assessed as percent of control at 50000 nM by qPCR analysis relative to control"}, "[4]": {"tested_on": "Receptor-type tyrosine-protein kinase FLT3 (Homo sapiens), P36888 [D835Y]", "assay": "Inhibition of DNA-tagged human FLT3 D835Y mutant assessed as percent of control at 50000 nM by qPCR analysis relative to control"}, "[5]": {"molecular_target": "Receptor-type tyrosine-protein kinase FLT3 (Homo sapiens) (UniProt P36888)", "assay": "Inhibition of DNA-tagged human FLT3 assessed as percent of control at 50000 nM by qPCR analysis relative to control"}, "[6]": {"molecular_target": "Mitogen-activated protein kinase 6 (Homo sapiens) (UniProt Q16659)", "assay": "Inhibition of DNA-tagged human ERK3 assessed as percent of control at 50000 nM by qPCR analysis relative to control"}, "[7]": {"molecular_target": "Mitogen-activated protein kinase 1 (Homo sapiens) (UniProt P28482)", "assay": "Inhibition of DNA-tagged human ERK2 assessed as percent of control at 50000 nM by qPCR analysis relative to control"}, "[8]": {"molecular_target": "Ephrin type-B receptor 6 (Homo sapiens) (UniProt O15197)", "assay": "Inhibition of DNA-tagged human EPHB6 assessed as percent of control at 50000 nM by qPCR analysis relative to control"}, "[9]": {"molecular_target": "Ephrin type-B receptor 4 (Homo sapiens) (UniProt P54760)", "sequence (P54760 whole entry)": "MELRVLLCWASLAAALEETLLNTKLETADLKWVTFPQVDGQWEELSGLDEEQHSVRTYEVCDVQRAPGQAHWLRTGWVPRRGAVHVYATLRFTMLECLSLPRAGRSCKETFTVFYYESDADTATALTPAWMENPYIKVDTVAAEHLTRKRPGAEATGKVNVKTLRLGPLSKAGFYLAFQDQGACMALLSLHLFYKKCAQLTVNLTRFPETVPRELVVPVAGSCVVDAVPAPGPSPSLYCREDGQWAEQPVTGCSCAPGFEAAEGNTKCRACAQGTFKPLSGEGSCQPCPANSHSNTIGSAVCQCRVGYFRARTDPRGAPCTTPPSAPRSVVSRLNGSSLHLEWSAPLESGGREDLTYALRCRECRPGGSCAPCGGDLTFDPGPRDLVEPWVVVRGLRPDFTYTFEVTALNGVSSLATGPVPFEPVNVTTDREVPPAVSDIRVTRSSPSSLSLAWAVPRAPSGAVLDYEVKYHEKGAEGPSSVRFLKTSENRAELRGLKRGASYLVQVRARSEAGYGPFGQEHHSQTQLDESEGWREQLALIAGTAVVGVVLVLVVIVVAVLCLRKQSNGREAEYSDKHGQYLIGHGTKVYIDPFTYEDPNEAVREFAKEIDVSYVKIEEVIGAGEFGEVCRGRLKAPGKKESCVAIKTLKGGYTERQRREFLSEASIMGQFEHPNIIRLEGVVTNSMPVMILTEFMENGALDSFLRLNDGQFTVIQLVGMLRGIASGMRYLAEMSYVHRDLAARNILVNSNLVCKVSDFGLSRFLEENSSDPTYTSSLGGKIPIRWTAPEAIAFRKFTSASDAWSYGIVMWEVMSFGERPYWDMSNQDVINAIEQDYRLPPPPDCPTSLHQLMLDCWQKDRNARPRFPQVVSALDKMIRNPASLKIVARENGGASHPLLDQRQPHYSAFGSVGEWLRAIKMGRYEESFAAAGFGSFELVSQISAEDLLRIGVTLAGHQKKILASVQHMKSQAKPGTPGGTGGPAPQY", "assay": "Inhibition of DNA-tagged human EPHB4 assessed as percent of control at 50000 nM by qPCR analysis relative to control"}, "[10]": {"molecular_target": "Ephrin type-A receptor 7 (Homo sapiens) (UniProt Q15375)", "assay": "Inhibition of DNA-tagged human EPHA7 assessed as percent of control at 50000 nM by qPCR analysis relative to control"}, "[11]": {"molecular_target": "Myotonin-protein kinase (Homo sapiens) (UniProt Q09013)", "assay": "Inhibition of DNA-tagged human DMPK assessed as percent of control at 50000 nM by qPCR analysis relative to control"}, "[12]": {"molecular_target": "Casein kinase I isoform gamma-3 (Homo sapiens) (UniProt Q9Y6M4)", "sequence (Q9Y6M4 whole entry, looked up, canonical isoform)": "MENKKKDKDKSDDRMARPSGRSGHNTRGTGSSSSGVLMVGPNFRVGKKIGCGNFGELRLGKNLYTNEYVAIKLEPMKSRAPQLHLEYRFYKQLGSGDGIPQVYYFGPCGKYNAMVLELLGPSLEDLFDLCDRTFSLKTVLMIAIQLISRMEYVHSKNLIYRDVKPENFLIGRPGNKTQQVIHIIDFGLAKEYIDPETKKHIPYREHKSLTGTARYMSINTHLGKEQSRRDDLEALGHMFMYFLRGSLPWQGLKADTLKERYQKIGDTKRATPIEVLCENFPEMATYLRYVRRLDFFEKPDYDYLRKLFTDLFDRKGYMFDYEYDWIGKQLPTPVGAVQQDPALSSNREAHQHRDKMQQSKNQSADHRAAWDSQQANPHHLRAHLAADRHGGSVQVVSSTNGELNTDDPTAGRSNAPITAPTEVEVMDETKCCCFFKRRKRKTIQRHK", "assay": "Inhibition of DNA-tagged human CSNK1G3 assessed as percent of control at 50000 nM by qPCR analysis relative to control"}, "[13]": {"molecular_target": "Casein kinase I isoform alpha (Homo sapiens) (UniProt P48729)", "assay": "Inhibition of DNA-tagged human CSNK1A1 assessed as percent of control at 50000 nM by qPCR analysis relative to control"}, "[14]": {"molecular_target": "Cyclin-dependent kinase 5 (Homo sapiens) (UniProt Q00535)", "assay": "Inhibition of DNA-tagged human CDK5 assessed as percent of control at 50000 nM by qPCR analysis relative to control"}, "[15]": {"molecular_target": "Calcium/calmodulin-dependent protein kinase type II subunit gamma (Homo sapiens) (UniProt Q13555)", "assay": "Inhibition of DNA-tagged human CAMK2G assessed as percent of control at 50000 nM by qPCR analysis relative to control"}, "[16]": {"molecular_target": "Cytoplasmic tyrosine-protein kinase BMX (Homo sapiens) (UniProt P51813)", "sequence (P51813 whole entry)": "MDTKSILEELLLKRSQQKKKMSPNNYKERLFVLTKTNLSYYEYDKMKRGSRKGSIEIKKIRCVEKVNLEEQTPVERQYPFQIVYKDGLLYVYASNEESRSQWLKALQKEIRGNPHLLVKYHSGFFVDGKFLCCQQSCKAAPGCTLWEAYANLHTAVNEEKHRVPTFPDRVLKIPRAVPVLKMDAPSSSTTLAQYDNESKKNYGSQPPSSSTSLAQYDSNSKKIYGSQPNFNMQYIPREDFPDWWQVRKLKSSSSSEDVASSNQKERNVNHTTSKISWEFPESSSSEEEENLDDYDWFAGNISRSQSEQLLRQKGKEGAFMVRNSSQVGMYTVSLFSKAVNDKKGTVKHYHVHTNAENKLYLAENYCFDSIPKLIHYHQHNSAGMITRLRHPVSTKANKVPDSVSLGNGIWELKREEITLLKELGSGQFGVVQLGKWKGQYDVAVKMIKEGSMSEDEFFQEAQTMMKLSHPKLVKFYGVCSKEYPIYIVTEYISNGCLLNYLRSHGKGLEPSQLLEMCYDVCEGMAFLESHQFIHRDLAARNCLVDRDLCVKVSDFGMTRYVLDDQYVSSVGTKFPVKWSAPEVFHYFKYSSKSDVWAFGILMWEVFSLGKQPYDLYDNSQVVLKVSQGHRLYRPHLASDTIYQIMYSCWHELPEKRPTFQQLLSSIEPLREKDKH", "assay": "Inhibition of DNA-tagged human BMX assessed as percent of control at 50000 nM by qPCR analysis relative to control"}, "[17]": {"molecular_target": "Ankyrin repeat and protein kinase domain-containing protein 1 (Homo sapiens) (UniProt Q8NFD2)", "sequence (Q8NFD2 whole entry, the tested form may be a part)": "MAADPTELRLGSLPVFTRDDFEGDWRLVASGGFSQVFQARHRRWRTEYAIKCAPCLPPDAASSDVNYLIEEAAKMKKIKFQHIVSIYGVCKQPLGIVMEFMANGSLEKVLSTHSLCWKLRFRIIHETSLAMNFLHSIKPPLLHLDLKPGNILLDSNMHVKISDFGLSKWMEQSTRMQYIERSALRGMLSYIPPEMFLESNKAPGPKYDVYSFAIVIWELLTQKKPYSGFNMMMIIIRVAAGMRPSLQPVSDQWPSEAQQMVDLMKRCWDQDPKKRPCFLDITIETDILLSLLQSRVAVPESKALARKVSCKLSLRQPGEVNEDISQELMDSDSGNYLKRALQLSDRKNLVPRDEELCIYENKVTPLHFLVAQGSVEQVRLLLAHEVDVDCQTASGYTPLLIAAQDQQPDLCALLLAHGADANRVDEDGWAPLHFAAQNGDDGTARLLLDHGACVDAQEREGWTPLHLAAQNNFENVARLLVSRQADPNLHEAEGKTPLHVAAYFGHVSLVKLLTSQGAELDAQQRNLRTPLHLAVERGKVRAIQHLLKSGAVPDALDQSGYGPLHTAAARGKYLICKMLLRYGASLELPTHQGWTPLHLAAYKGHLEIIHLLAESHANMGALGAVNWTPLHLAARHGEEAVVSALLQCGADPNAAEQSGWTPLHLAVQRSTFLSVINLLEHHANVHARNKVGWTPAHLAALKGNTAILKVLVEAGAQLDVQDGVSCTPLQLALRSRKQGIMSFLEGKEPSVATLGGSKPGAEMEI", "assay": "Inhibition of DNA-tagged human ANKK1 assessed as percent of control at 50000 nM by qPCR analysis relative to control"}, "[18]": {"molecular_target": "Activin receptor type-2A (Homo sapiens) (UniProt P27037)", "assay": "Inhibition of DNA-tagged human ACVR2A assessed as percent of control at 50000 nM by qPCR analysis relative to control"}, "[19]": {"molecular_target": "Leucine-rich repeat serine/threonine-protein kinase 2 (Homo sapiens) (UniProt Q5S007)", "assay": "Inhibition of DNA-tagged human LRRK2 assessed as percent of control at 50000 nM by qPCR analysis relative to control"}, "[20]": {"molecular_target": "Mitogen-activated protein kinase kinase kinase 1 (Homo sapiens) (UniProt Q13233)", "assay": "Inhibition of DNA-tagged human MAP3K1 assessed as percent of control at 50000 nM by qPCR analysis relative to control"}, "[21]": {"molecular_target": "Mitogen-activated protein kinase kinase kinase kinase 4 (Homo sapiens) (UniProt O95819)", "assay": "Inhibition of DNA-tagged human MAP4K4 assessed as percent of control at 50000 nM by qPCR analysis relative to control"}, "[22]": {"molecular_target": "Tyrosine-protein kinase Mer (Homo sapiens) (UniProt Q12866)", "sequence (Q12866 whole entry)": "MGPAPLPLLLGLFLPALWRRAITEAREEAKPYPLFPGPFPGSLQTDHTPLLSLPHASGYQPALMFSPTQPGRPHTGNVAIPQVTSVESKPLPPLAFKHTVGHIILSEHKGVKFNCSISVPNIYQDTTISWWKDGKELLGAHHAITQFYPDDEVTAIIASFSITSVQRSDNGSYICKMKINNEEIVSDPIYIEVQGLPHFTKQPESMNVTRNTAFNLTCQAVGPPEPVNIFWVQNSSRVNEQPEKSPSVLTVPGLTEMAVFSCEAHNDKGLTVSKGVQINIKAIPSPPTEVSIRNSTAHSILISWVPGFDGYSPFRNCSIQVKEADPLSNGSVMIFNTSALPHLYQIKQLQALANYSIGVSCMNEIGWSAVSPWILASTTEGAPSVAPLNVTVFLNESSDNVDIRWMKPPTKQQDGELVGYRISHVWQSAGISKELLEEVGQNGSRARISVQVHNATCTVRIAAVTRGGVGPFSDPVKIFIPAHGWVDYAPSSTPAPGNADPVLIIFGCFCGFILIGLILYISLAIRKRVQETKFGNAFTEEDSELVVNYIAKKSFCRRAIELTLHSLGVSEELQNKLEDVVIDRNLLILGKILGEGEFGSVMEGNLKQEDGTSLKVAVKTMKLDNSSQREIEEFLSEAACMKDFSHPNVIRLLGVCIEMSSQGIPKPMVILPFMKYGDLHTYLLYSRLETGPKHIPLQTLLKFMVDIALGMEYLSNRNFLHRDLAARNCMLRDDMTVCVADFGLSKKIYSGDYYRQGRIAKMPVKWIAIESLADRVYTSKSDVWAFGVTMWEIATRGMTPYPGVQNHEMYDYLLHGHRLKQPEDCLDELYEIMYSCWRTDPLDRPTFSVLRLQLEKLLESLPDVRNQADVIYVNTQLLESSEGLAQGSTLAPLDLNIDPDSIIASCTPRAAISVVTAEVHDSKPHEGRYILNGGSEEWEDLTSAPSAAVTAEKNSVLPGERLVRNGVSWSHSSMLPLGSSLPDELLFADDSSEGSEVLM", "assay": "Inhibition of DNA-tagged human MERTK assessed as percent of control at 50000 nM by qPCR analysis relative to control"}, "[23]": {"tested_on": "Hepatocyte growth factor receptor (Homo sapiens), P08581 [M1250T]", "assay": "Inhibition of DNA-tagged human MET M1250T mutant assessed as percent of control at 50000 nM by qPCR analysis relative to control"}, "[24]": {"molecular_target": "Serine/threonine-protein kinase Nek3 (Homo sapiens) (UniProt P51956)", "assay": "Inhibition of DNA-tagged human NEK3 assessed as percent of control at 50000 nM by qPCR analysis relative to control"}, "[25]": {"molecular_target": "Mitogen-activated protein kinase 14 (Homo sapiens) (UniProt Q16539)", "sequence (Q16539 whole entry)": "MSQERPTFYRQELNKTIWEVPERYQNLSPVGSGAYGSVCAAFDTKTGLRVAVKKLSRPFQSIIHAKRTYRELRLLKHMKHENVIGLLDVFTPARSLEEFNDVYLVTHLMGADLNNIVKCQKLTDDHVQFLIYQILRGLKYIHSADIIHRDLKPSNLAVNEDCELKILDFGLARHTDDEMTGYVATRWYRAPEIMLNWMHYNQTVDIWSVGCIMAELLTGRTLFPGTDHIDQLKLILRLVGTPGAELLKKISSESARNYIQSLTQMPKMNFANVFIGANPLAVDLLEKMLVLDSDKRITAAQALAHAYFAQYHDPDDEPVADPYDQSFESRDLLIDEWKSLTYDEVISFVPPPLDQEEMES", "assay": "Inhibition of DNA-tagged human p38-alpha assessed as percent of control at 50000 nM by qPCR analysis relative to control"}, "[26]": {"molecular_target": "Serine/threonine-protein kinase PAK 5 (Homo sapiens) (UniProt Q9P286)", "assay": "Inhibition of DNA-tagged human PAK7 assessed as percent of control at 50000 nM by qPCR analysis relative to control"}, "[27]": {"molecular_target": "Phosphatidylinositol 4-phosphate 5-kinase type-1 alpha (Homo sapiens) (UniProt Q99755)", "assay": "Inhibition of DNA-tagged human PIP5K1A assessed as percent of control at 50000 nM by qPCR analysis relative to control"}, "[28]": {"molecular_target": "Phosphatidylinositol 5-phosphate 4-kinase type-2 beta (Homo sapiens) (UniProt P78356)", "assay": "Inhibition of DNA-tagged human PIP5K2B assessed as percent of control at 50000 nM by qPCR analysis relative to control"}, "[29]": {"molecular_target": "Serine/threonine-protein kinase TNNI3K (Homo sapiens) (UniProt Q59H18)", "sequence (Q59H18 whole entry)": "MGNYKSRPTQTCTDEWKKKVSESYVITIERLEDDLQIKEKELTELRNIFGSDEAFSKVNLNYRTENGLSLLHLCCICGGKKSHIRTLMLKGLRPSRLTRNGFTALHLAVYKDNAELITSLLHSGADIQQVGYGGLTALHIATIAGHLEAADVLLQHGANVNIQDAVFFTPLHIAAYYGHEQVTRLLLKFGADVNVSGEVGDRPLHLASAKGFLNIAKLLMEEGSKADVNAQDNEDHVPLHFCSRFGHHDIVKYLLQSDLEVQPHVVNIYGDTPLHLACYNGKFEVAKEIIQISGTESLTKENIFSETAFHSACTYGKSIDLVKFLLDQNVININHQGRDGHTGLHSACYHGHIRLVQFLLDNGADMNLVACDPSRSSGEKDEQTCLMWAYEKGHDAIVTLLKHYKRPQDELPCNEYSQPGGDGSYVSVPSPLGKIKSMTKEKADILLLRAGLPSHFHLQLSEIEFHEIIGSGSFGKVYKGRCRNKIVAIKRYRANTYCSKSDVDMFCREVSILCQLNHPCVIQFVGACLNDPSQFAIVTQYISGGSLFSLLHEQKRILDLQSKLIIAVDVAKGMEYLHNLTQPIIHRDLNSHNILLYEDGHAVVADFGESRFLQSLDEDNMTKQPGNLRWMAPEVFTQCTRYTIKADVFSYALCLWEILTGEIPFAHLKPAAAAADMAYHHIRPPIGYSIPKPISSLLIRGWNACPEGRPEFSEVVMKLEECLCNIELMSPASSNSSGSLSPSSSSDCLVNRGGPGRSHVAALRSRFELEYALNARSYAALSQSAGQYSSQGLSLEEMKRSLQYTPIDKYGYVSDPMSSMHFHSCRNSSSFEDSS", "assay": "Inhibition of DNA-tagged human TNNI3K assessed as percent of control at 50000 nM by qPCR analysis relative to control"}, "[30]": {"molecular_target": "Wee1-like protein kinase 2 (Homo sapiens) (UniProt P0C1S8)", "assay": "Inhibition of DNA-tagged human WEE2 assessed as percent of control at 50000 nM by qPCR analysis relative to control"}}, "data": [{"smiles": "CN1C(=O)/C(=C2/C(=O)Nc3ccccc32)c2ccccc21", "values": [{"measurement": "Activity", "setting": "[1]", "result": 85, "unit": "%"}, {"measurement": "Activity", "setting": "[2]", "result": 100, "unit": "%"}, {"measurement": "Activity", "setting": "[3]", "result": 100, "unit": "%"}, {"measurement": "Activity", "setting": "[4]", "result": 75, "unit": "%"}, {"measurement": "Activity", "setting": "[5]", "result": 79, "unit": "%"}, {"measurement": "Activity", "setting": "[6]", "result": 100, "unit": "%"}, {"measurement": "Activity", "setting": "[7]", "result": 100, "unit": "%"}, {"measurement": "Activity", "setting": "[8]", "result": 89, "unit": "%"}, {"measurement": "Activity", "setting": "[9]", "result": 98, "unit": "%"}, {"measurement": "Activity", "setting": "[10]", "result": 100, "unit": "%"}, {"measurement": "Activity", "setting": "[11]", "result": 84, "unit": "%"}, {"measurement": "Activity", "setting": "[12]", "result": 90, "unit": "%"}, {"measurement": "Activity", "setting": "[13]", "result": 100, "unit": "%"}, {"measurement": "Activity", "setting": "[14]", "result": 100, "unit": "%"}, {"measurement": "Activity", "setting": "[15]", "result": 90, "unit": "%"}, {"measurement": "Activity", "setting": "[16]", "result": 89, "unit": "%"}, {"measurement": "Activity", "setting": "[17]", "result": 81, "unit": "%"}, {"measurement": "Activity", "setting": "[18]", "result": 99, "unit": "%"}, {"measurement": "Activity", "setting": "[19]", "result": 96, "unit": "%"}, {"measurement": "Activity", "setting": "[20]", "result": 83, "unit": "%"}, {"measurement": "Activity", "setting": "[21]", "result": 100, "unit": "%"}, {"measurement": "Activity", "setting": "[22]", "result": 100, "unit": "%"}, {"measurement": "Activity", "setting": "[23]", "result": 80, "unit": "%"}, {"measurement": "Activity", "setting": "[24]", "result": 92, "unit": "%"}, {"measurement": "Activity", "setting": "[25]", "result": 100, "unit": "%"}, {"measurement": "Activity", "setting": "[26]", "result": 98, "unit": "%"}, {"measurement": "Activity", "setting": "[27]", "result": 100, "unit": "%"}, {"measurement": "Activity", "setting": "[28]", "result": 100, "unit": "%"}, {"measurement": "Activity", "setting": "[29]", "result": 95, "unit": "%"}, {"measurement": "Activity", "setting": "[30]", "result": 95, "unit": "%"}]}]}
